Measurements: patent US20090143279A1 (priority 2007, published 2009)
Read-outs that look alike come from different tables or passages of the source.

Experiments:
[1] = test system: cellular dehydrogenase activity; details: for MTT (composite Z-score): normalized score vs mock-treated (DMSO) wells
OXPHOS gene expression = format: cell-based, mouse; details: for GE-HTS (composite Z-score): normalized score vs mock-treated (DMSO) wells
reactive oxygen species = format: cell-based, mouse; details: for ROS (composite Z-score): normalized score vs mock-treated (DMSO) wells
C2C12 myotubes = details: for Viability (composite Z-score): normalized score vs mock-treated (DMSO) wells
cytochrome c = format: cell-based, mouse; details: for cyt c (composite Z-score): normalized score vs mock-treated (DMSO) wells
nuOXPHOS transcripts = format: cell-based, mouse; details: for nucOX (composite Z-score): normalized score vs mock-treated (DMSO) wells; for nucOXPHOS Z: Table 7, C2C12 myotubes, 48 h, composite Z-score
mtOXPHOS transcripts = format: cell-based, mouse; details: for mitoOX (composite Z-score): normalized score vs mock-treated (DMSO) wells; for mito-OXPHOS Z: Table 7, C2C12 myotubes, 48 h, composite Z-score
[2] = test system: mitochondrial membrane potential; format: cell-based, mouse; details: for ΔΨm (composite Z-score): normalized score vs mock-treated (DMSO) wells
[3] = 20 μM, composite Z-score vs DMSO
[4] = composite Z-score vs DMSO, Conc 20 μM
[5] = normalized composite Z-score vs mock-treated (DMSO) wells, Conc 20 μM
[6] = composite Z-score vs mock-treated (DMSO) wells, Conc 20 μM
[7] = composite Z-score vs DMSO wells, Conc 20 μM

CCOc1cc(CC(=O)c2ccc(O)c(O)c2O)ccc1O
MTT (composite Z-score) ([1]; Conc 20 μM): −1.279 | GE-HTS (composite Z-score) (OXPHOS gene expression; Conc 20 μM): 1.215 | ROS (composite Z-score) (reactive oxygen species; Conc 20 μM): 0.189 | Viability (composite Z-score) (C2C12 myotubes; Conc 20 μM): −1.198 | cyt c (composite Z-score) (cytochrome c; Conc 20 μM): 0.255 | nucOX (composite Z-score) (nuOXPHOS transcripts; Conc 20 μM): 1.496 | mitoOX (composite Z-score) (mtOXPHOS transcripts; Conc 20 μM): 0.371 | ΔΨm (composite Z-score) ([2]; Conc 20 μM): −1.362

CC(=O)O[C@H]1CC[C@]2(C)C3=CC(=O)[C@]4(C)[C@@H]5[C@H](C[C@H]4[C@@H]3CC[C@H]2C1)O[C@@]1(OCC(C)CC1Br)[C@H]5C (stereo partly shown)
MTT (composite Z-score) ([1]; Conc 20 μM): −2.231 | GE-HTS (composite Z-score) (OXPHOS gene expression; Conc 20 μM): −0.560 | ROS (composite Z-score) (reactive oxygen species; Conc 20 μM): 1.188 | Viability (composite Z-score) (C2C12 myotubes; Conc 20 μM): 0.710 | cyt c (composite Z-score) (cytochrome c; Conc 20 μM): 0.565 | nucOX (composite Z-score) (nuOXPHOS transcripts; Conc 20 μM): −0.585 | mitoOX (composite Z-score) (mtOXPHOS transcripts; Conc 20 μM): −0.446 | ΔΨm (composite Z-score) ([2]; Conc 20 μM): −0.260

NC(=O)c1ccc[n+]([C@@H]2O[C@H](COP(=O)([O-])OP(=O)(O)OC[C@H]3O[C@@H](n4cnc5c(N)ncnc54)[C@H](OP(=O)(O)O)[C@@H]3O)[C@@H](O)[C@H]2O)c1
MTT [1, 3]: −1.286 | GE-HTS (OXPHOS gene expression; [3]): −0.424 | ROS (reactive oxygen species; [3]): −0.038 | Viability (C2C12 myotubes; [3]): −0.562 | cyt c (cytochrome c; [3]): 0.101 | nucOX (nuOXPHOS transcripts; [3]): −0.307 | mitoOX (mtOXPHOS transcripts; [3]): −0.615 | ΔΨm [2, 3]: −0.582

COc1cc(OC)c2c(=O)c(-c3ccccc3)coc2c1 [5,7-dimethoxyisoflavone]
MTT [1, 4]: −1.335 | GE-HTS (OXPHOS gene expression; [4]): 0.945 | ROS (reactive oxygen species; [4]): 0.573 | Viability (C2C12 myotubes; [4]): −0.298 | cyt c (cytochrome c; [4]): 0.046 | nucOX (nuOXPHOS transcripts; [4]): 0.916 | mitoOX (mtOXPHOS transcripts; [4]): 0.773

C[C@H]1O[C@@H](n2cc(F)c(=O)[nH]c2=O)[C@H](O)[C@@H]1O [5-fluoro-5′-deoxyuridine]
MTT [1, 4]: −2.176 | GE-HTS (OXPHOS gene expression; [4]): −0.336 | ROS (reactive oxygen species; [4]): 0.337 | cyt c (cytochrome c; [4]): 0.338 | nucOX (nuOXPHOS transcripts; [4]): −0.284 | mitoOX (mtOXPHOS transcripts; [4]): −0.387 | ΔΨm [2, 4]: −0.828

C[C@]12CCC(=O)C[C@@H]1CC[C@@H]1[C@@H]2CC[C@]2(C)C(=O)CC[C@@H]12 [5alpha-androstan-3,17-dione]
MTT [1]: −0.601 | ROS (reactive oxygen species): 0.649 | Viability (C2C12 myotubes): −0.579 | cyt c (cytochrome c): 0.048 | nucOX (nuOXPHOS transcripts): −0.426 | mitoOX (mtOXPHOS transcripts): −0.509 | ΔΨm [2]: 0.107

C=C1CCC=C(C)C(=O)CC2C(C)CC12 (stereo not shown) [15-norcaryophyllen-3-one]
GE-HTS (OXPHOS gene expression; [5]): −0.016 | ROS (reactive oxygen species; [5]): −0.667 | Viability (C2C12 myotubes; [5]): 0.557 | cyt c (cytochrome c; [5]): 0.656 | nucOX (nuOXPHOS transcripts; [5]): −0.076 | mitoOX (mtOXPHOS transcripts; [5]): 0.137 | ΔΨm [2, 5]: 0.034

CC(C)[C@]12O[C@H]1[C@@H]1O[C@@]13[C@@]1(C)CCC4=C(COC4=O)[C@@H]1C[C@@H]1O[C@@]13C2=O [Triptonide, reference compound]
nucOXPHOS Z (nuOXPHOS transcripts): −2.18 | mito-OXPHOS Z (mtOXPHOS transcripts): 5.02

CCCCCCCCCCCCCCCC[N+](C)(C)C.[Br-] [cetrimonium bromide, reference compound]
nucOXPHOS Z (nuOXPHOS transcripts): −2.70 | mito-OXPHOS Z (mtOXPHOS transcripts): 1.66

CC12CCC3c4ccc(OCc5ccccc5)cc4CCC3C1C[C@@H](O)[C@@H]2O (stereo partly shown) [estriol benzyl ether]
MTT (composite Z-score vs DMSO mock-treated wells) [1]: 2.975 | GE-HTS (composite Z-score, OXPHOS gene expression) (OXPHOS gene expression): −0.114 | ROS (composite Z-score vs DMSO mock-treated wells) (reactive oxygen species): −0.504 | Viability (composite Z-score vs DMSO mock-treated wells) (C2C12 myotubes): 0.551 | nucOX (composite Z-score, nuclear-encoded OXPHOS expression) (nuOXPHOS transcripts): 0.122 | mitoOX (composite Z-score, mtDNA-encoded OXPHOS expression) (mtOXPHOS transcripts): −0.574 | ΔΨm (composite Z-score vs DMSO mock-treated wells) [2]: 3.459

CCOC(=O)c1c(C)cc(OC)cc1O [ethyl everninate]
MTT [1, 4]: −1.302 | GE-HTS (OXPHOS gene expression; [4]): −0.428 | ROS (reactive oxygen species; [4]): 0.125 | cyt c (cytochrome c; [4]): 0.122 | nucOX (nuOXPHOS transcripts; [4]): −0.131 | mitoOX (mtOXPHOS transcripts; [4]): −0.980 | ΔΨm [2, 4]: −0.860

COC(=O)C[C@H]1C(C)(C)[C@@H](OC(C)=O)[C@@H]2CC3=C4CC(=O)O[C@@H](c5ccoc5)[C@]4(C)CC[C@@H]3[C@@]1(C)C2=O [fissinolide]
GE-HTS (OXPHOS gene expression; [6]): 0.534 | ROS (reactive oxygen species; [6]): 0.475 | Viability (C2C12 myotubes; [6]): 0.060 | cyt c (cytochrome c; [6]): −0.167 | nucOX (nuOXPHOS transcripts; [6]): 0.385 | mitoOX (mtOXPHOS transcripts; [6]): 0.777 | ΔΨm [2, 6]: −0.324

CC[N+](CC)(CC)CCOc1cccc(OCC[N+](CC)(CC)CC)c1OCC[N+](CC)(CC)CC [gallamine]
MTT [1, 7]: −1.683 | GE-HTS (OXPHOS gene expression; [7]): 0.057 | ROS (reactive oxygen species; [7]): 1.259 | cyt c (cytochrome c): 0.036 | cyt c (cytochrome c; [7]): −0.492 | nucOX (nuOXPHOS transcripts; [7]): −0.292 | mitoOX (mtOXPHOS transcripts; [7]): 0.843 | ΔΨm [2, 7]: −0.882
